Laboratory results from ChEMBL document CHEMBL3600322, “Phenoxymethyl 1,3-oxazoles and 1,2,4-oxadiazoles as potent and selective agonists of free fatty acid receptor 1 (GPR40)” (Bioorg Med Chem Lett, 2015).
Converted amounts (≈) assume the structure as drawn.

Tests used:
[1] = biological target: T1, Free fatty acid receptor 1 (Homo sapiens, UniProt O14842); assay: Agonist activity at GPR40 (unknown origin) expressed in CHO cells by FLIPR calcium flux assay in presence of 0.1% bovine serum albumin; type: functional, cell-based
[2] = biological target: T1, Free fatty acid receptor 1; assay: Agonist activity at GPR40 (unknown origin) expressed in CHO cells at 5 uM by FLIPR calcium flux assay relative to GW9508; type: functional, cell-based
[3] = biological target: T2, CYP2C19 (Homo sapiens, UniProt P33261); assay: Inhibition of CYP2C19 (unknown origin) at 24 uM by luminescent readout-based method; type: ADME
[4] = biological target: T3, Free fatty acid receptor 3 (Homo sapiens, UniProt O14843); assay: Agonist activity at GPR41 (unknown origin) expressed in CHO cells by FLIPR calcium flux assay in presence of 0.1% bovine serum albumin; type: functional, cell-based
T3 sequence (O14843 whole entry): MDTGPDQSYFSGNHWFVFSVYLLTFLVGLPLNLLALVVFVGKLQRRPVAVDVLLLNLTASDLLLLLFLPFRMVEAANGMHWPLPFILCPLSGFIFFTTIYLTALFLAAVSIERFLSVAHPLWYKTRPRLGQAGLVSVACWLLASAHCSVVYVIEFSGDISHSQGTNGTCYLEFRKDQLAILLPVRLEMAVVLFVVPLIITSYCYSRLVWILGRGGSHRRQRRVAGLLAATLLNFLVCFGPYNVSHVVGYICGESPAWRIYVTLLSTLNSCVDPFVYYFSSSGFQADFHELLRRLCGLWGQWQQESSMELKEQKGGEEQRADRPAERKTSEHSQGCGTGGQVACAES

[5] = biological target: T4, Free fatty acid receptor 2 (Homo sapiens, UniProt O15552); assay: Agonist activity at GPR43 (unknown origin) expressed in CHO cells by FLIPR calcium flux assay in presence of 0.1% bovine serum albumin; type: functional, cell-based
T4 sequence (O15552 whole entry): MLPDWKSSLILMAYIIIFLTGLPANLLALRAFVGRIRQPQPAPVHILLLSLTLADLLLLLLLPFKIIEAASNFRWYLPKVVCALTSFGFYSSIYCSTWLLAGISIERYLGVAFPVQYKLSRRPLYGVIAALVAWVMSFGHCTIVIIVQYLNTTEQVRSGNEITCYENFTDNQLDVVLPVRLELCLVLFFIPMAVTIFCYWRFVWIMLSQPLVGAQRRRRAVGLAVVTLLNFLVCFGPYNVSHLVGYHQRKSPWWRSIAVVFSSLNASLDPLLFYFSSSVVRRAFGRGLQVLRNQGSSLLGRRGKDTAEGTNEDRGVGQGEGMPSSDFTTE

[6] = biological target: T5, Free fatty acid receptor 4 (Homo sapiens, UniProt Q5NUL3); assay: Agonist activity at GPR120 (unknown origin) expressed in CHO cells by FLIPR calcium flux assay in presence of 0.1% bovine serum albumin; type: functional, cell-based
T5 sequence (Q5NUL3 whole entry): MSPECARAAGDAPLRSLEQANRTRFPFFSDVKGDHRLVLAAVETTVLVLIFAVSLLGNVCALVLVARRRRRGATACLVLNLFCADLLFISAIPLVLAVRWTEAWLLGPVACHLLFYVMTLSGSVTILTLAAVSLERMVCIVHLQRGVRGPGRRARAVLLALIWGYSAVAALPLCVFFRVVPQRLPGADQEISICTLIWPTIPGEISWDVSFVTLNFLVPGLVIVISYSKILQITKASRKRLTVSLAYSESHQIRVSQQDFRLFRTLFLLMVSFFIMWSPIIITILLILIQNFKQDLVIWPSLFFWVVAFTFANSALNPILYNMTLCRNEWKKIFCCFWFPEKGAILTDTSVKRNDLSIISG

[7] = Plasma protein binding in human at 1 uM after 5 hrs by HPLC-MS/MS analysis; type: ADME, cell-free; conditions: read-out: PPB (converted)
[8] = Kinetic solubility of the compound in phosphate-buffered saline at pH 7.4 by filter microplate technique; type: physicochemical; conditions: read-out: Kinetic_solubility
[9] = Half life in BALB/c mouse liver microsomes at 2 uM by HPLC-MS analysis; type: ADME
[10] = Apparent permeability from apical to basolateral side in human Caco2 cells assessed […] at 10 uM by HPLC-MS analysis; type: ADME, cell-based; conditions: Caco-2
[11] = biological target: T6, CYP1A2 (Homo sapiens, UniProt P05177); assay: Inhibition of CYP1A2 (unknown origin) at 5 uM by luminescent readout-based method; type: ADME
T6 sequence (P05177 whole entry): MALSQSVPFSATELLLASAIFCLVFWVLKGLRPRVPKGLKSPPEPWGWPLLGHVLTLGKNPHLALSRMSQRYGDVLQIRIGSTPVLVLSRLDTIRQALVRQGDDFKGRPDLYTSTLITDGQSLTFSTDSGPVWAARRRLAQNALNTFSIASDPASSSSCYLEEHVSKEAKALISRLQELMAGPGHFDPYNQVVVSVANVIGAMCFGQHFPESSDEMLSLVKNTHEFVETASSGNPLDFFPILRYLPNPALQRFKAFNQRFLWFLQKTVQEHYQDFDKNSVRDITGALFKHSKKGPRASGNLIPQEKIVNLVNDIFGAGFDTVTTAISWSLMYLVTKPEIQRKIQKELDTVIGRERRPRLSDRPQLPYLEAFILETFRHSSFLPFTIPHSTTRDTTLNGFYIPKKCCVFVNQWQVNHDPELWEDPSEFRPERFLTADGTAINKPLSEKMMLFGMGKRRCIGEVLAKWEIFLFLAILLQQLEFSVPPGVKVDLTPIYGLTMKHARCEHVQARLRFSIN

[12] = biological target: T7, CYP2C9 (Homo sapiens, UniProt P11712); assay: Inhibition of CYP2C9 (unknown origin) at 5 uM by luminescent readout-based method; type: ADME
[13] = biological target: T2, CYP2C19; assay: Inhibition of CYP2C19 (unknown origin) at 5 uM by luminescent readout-based method; type: ADME
[14] = biological target: T8, CYP2D6 (Homo sapiens, UniProt P10635); assay: Inhibition of CYP2D6 (unknown origin) at 5 uM by luminescent readout-based method; type: ADME
[15] = biological target: CYP3A4 (Homo sapiens, UniProt P08684); assay: Inhibition of CYP3A4 (unknown origin) at 5 uM by luminescent readout-based method; type: ADME
[16] = biological target: T7, CYP2C9; assay: Inhibition of CYP2C9 (unknown origin) at 120 uM by luminescent readout-based method; type: ADME
[17] = biological target: T8, CYP2D6; assay: Inhibition of CYP2D6 (unknown origin) at 1 uM by luminescent readout-based method

T2 sequence (P33261 whole entry): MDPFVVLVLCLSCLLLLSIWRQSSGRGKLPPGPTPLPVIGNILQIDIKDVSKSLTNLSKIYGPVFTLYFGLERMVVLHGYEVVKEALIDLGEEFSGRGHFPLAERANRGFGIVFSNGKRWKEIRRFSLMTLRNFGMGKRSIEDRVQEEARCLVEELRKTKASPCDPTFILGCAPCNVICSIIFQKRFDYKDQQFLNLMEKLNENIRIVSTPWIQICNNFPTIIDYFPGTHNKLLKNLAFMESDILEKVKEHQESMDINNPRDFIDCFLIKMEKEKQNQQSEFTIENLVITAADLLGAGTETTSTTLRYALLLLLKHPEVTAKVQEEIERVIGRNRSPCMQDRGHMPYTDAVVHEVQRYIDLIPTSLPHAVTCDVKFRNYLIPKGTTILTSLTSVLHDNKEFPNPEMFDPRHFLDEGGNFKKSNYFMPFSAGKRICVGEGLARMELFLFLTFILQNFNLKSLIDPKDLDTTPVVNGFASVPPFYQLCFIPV
Chain of CYP3A4 (P08684 whole entry): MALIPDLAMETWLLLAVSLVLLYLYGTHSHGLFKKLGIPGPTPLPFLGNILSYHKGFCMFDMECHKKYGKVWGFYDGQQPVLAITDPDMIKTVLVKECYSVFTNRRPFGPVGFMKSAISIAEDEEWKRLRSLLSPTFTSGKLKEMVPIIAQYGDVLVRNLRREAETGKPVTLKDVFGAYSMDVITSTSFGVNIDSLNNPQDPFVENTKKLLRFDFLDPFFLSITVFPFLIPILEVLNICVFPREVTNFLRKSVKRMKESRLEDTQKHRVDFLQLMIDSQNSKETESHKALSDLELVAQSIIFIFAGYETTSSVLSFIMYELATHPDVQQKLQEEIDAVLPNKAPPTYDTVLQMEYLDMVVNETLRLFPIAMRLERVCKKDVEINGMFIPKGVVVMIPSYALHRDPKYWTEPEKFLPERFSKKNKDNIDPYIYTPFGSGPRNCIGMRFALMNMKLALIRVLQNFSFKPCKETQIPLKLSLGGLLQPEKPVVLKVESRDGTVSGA
T1 sequence (O14842 whole entry): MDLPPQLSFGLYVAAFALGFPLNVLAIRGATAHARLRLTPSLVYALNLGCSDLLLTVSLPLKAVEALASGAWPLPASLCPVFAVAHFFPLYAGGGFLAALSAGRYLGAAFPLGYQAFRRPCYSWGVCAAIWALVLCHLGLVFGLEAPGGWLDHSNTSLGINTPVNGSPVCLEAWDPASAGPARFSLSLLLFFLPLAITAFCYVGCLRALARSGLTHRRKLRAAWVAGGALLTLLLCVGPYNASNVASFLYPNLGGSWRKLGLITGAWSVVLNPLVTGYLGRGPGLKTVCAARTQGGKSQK
T7 sequence (P11712 whole entry): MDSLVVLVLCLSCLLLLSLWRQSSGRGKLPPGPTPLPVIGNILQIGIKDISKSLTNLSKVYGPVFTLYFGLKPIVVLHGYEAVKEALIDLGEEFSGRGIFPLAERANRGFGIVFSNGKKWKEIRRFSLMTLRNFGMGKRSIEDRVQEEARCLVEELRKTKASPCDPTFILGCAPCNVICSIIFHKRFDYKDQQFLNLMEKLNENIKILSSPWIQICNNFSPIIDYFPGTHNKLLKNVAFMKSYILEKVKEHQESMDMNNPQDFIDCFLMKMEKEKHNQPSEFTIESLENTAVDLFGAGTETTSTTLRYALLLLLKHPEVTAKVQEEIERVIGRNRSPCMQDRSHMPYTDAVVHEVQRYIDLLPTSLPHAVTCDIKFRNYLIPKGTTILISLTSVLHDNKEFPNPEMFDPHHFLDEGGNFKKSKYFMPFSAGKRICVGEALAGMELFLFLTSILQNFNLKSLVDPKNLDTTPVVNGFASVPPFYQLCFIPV
T8 sequence (P10635 whole entry): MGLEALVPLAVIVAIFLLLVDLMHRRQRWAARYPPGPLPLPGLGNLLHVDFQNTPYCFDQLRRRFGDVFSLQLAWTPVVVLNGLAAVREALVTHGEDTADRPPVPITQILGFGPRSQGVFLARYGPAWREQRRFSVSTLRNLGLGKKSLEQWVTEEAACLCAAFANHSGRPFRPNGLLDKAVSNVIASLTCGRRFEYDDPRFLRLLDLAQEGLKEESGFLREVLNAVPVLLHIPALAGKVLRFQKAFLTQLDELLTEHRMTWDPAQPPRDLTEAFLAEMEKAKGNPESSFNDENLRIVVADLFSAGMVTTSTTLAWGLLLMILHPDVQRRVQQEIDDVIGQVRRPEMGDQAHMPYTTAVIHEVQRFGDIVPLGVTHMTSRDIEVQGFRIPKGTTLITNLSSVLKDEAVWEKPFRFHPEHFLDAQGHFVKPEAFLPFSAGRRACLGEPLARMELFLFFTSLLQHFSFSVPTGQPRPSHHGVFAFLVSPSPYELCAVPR

O=C(O)CCc1ccc(OCc2nc(-c3ccccc3)no2)c(Cl)c1
EC50 [1]: 13.1 µM
Efficacy [2]: 95%

O=C(O)CCc1ccc(OCc2coc(-c3cccc(F)c3)n2)cc1
EC50 [1]: 0.56 µM
Efficacy [2]: 99%

O=C(O)CCc1ccc(OCc2nc(-c3ccc(F)cc3)no2)cc1
EC50 [1]: 0.68 µM
Efficacy [2]: 66%

O=C(O)CCc1ccc(OCc2coc(-c3cccc(Cl)c3)n2)cc1
EC50 [1]: 0.16 µM
Efficacy [2]: 106%

O=C(O)CCc1ccc(OCc2nc(-c3cccc(C(F)(F)F)c3)no2)cc1
EC50 [1]: 1.11 µM
Efficacy [2]: 65%

COc1ccc2[nH]c([S+]([O-])Cc3ncc(C)c(OC)c3C)nc2c1 (stereo unspecified) [OMEPRAZOLE]
inhibition at 24 µM [3]: 93.4%

Cc1oc(-c2ccccc2)nc1COc1ccc(CCC(=O)O)cc1
EC50 [1]: 0.058 µM
Efficacy [2]: 103%
EC50 [4]: > 10 µM
EC50 [5]: > 10 µM
EC50 [6]: > 10 µM
fraction unbound at 5 h, 1 µM [7]: 0.014
solubility kinetic [8]: 404 µM (≈ 136 µg/mL)
half-life at 2 µM [9]: 7.23 h
Papp A→B at 10 µM [10]: 15.2 ×10⁻⁶ cm/s
inhibition at 5 µM [11]: 8.9%
inhibition at 5 µM [12]: 10.8%
inhibition at 5 µM [13]: 23.6%
inhibition at 5 µM [14]: 17.7%
inhibition at 5 µM [15]: 36.2%

O=C(O)CCc1ccc(OCc2nc(-c3ccccc3Cl)no2)cc1
EC50 [1]: 1.2 µM
Efficacy [2]: 61%

CCc1ccc(-c2noc(COc3ccc(CCC(=O)O)cc3)n2)cc1
EC50 [1]: 0.21 µM
Efficacy [2]: 106%

O=C(O)CCc1ccc(OCc2nc(-c3ccc(C(F)(F)F)cc3)no2)cc1
EC50 [1]: 0.61 µM
Efficacy [2]: 73%

COc1cccc(-c2noc(COc3ccc(CCC(=O)O)cc3Cl)n2)c1
EC50 [1]: 3 µM
Efficacy [2]: 88%

CC(Oc1ccc(CCC(=O)O)cc1)c1nc(-c2ccccc2)no1 (stereo unspecified)
EC50 [1]: 2.39 µM
Efficacy [2]: 109%

O=C(O)Cc1ccc(OCc2nc(-c3cccc(Cl)c3)no2)cc1
EC50 [1]: 18.8 µM
Efficacy [2]: 69%

CC(Oc1ccc(CCC(=O)O)cc1)c1nc(-c2cccs2)no1 (stereo unspecified)
EC50 [1]: 4 µM
Efficacy [2]: 94%

O=C(O)CCc1ccc(OCc2nc(-c3ccco3)no2)cc1
EC50 [1]: > 100 µM

O=C(O)CCc1ccc(OCc2coc(-c3ccccc3)n2)cc1
EC50 [1]: 0.7 µM
Efficacy [2]: 98%

OC(Cn1cncn1)(Cn1cncn1)c1ccc(F)cc1F [FLUCONAZOLE]
inhibition at 120 µM [16]: 89.1%

Cc1ccc(-c2noc(COc3ccc(CCC(=O)O)cc3)n2)cc1
EC50 [1]: 0.3 µM
Efficacy [2]: 99%
EC50 [4]: > 10 µM
EC50 [5]: > 10 µM
EC50 [6]: > 10 µM
fraction unbound at 5 h, 1 µM [7]: 0.015
solubility kinetic [8]: 334 µM (≈ 113 µg/mL)
half-life at 2 µM [9]: 6.22 h
Papp A→B at 10 µM [10]: 27.3 ×10⁻⁶ cm/s
inhibition at 5 µM [11]: 13.6%
inhibition at 5 µM [12]: 4.26%
inhibition at 5 µM [13]: 20.6%
inhibition at 5 µM [14]: -8.3%
inhibition at 5 µM [15]: 29.2%

O=C(O)CCc1ccc(OCc2noc(-c3ccccc3)n2)cc1
EC50 [1]: 2.65 µM
Efficacy [2]: 42%

O=C(O)CCc1ccc(OCc2ncc(-c3cccc(F)c3)o2)cc1
EC50 [1]: 1.07 µM
Efficacy [2]: 81%

Cc1cc(-c2noc(COc3ccc(CCC(=O)O)cc3)n2)ccc1F
EC50 [1]: 2.12 µM
Efficacy [2]: 75%

CC(Oc1ccc(CCC(=O)O)cc1)c1nc(-c2ccc(Cl)cc2)no1 (stereo unspecified)
EC50 [1]: 0.5 µM
Efficacy [2]: 68%

COc1cccc(-c2noc(COc3ccc(CCC(=O)O)cc3)n2)c1
EC50 [1]: 2.67 µM
Efficacy [2]: 81%

O=C(O)CCc1ccc(OCc2nc(-c3cccs3)no2)cc1
EC50 [1]: 2.57 µM
Efficacy [2]: 59%

C=C[C@H]1C[N@@]2CC[C@H]1C[C@@H]2[C@@H](O)c1ccnc2ccc(OC)cc12 [QUINIDINE]
inhibition at 1 µM [17]: 96.2%

O=C(O)CCc1ccc(OCc2nc(-c3cccc(C(F)(F)F)c3)no2)c(Cl)c1
EC50 [1]: 30.1 µM
Efficacy [2]: 22%

O=C(O)CCc1ccc(OCc2ncc(-c3cccc(Cl)c3)o2)cc1
EC50 [1]: 47.5 µM
Efficacy [2]: 30%

O=C(O)CCc1ccc(OCc2ncc(-c3ccccc3)o2)cc1
EC50 [1]: 1.6 µM
Efficacy [2]: 58%

O=C(O)CCc1ccc(OCc2nc(-c3cccc(Br)c3)no2)cc1
EC50 [1]: 1.26 µM
Efficacy [2]: 130%

O=C(O)CCc1ccc(OCc2nc(-c3ccccc3)no2)cc1
EC50 [1]: 1.13 µM
Efficacy [2]: 65%

Cc1cccc(-c2noc(COc3ccc(CCC(=O)O)cc3Cl)n2)c1
EC50 [1]: 4.58 µM
Efficacy [2]: 54%

O=C(O)CCc1ccc(OCc2nc(-c3ccc(Cl)cc3)no2)cc1
EC50 [1]: 0.54 µM
Efficacy [2]: 84%
EC50 [4]: > 10 µM
EC50 [5]: > 10 µM
EC50 [6]: > 10 µM
fraction unbound at 5 h, 1 µM [7]: 0.001
solubility kinetic [8]: 214 µM (≈ 76.8 µg/mL)
half-life at 2 µM [9]: 12.1 h
Papp A→B at 10 µM [10]: 2.1 ×10⁻⁶ cm/s
inhibition at 5 µM [11]: 25.9%
inhibition at 5 µM [12]: 16.2%
inhibition at 5 µM [13]: 31.6%
inhibition at 5 µM [14]: -5.8%
inhibition at 5 µM [15]: 50.1%
